Assays:
[1] = Biodistribution in iv dosed Sprague-Dawley rats small intestine after 0.5 min by gamma counter; format: ADME, organism-based; conditions: rat, in vivo
[2] = Biodistribution in iv dosed Sprague-Dawley rats stomach after 10 mins by gamma counter; format: ADME, organism-based; conditions: rat, in vivo
[3] = Biodistribution in iv dosed Sprague-Dawley rats small intestine after 30 mins by gamma counter; format: ADME, organism-based; conditions: rat, in vivo, 0.5 h
[4] = Biodistribution in iv dosed Sprague-Dawley rats stomach after 2 mins by gamma counter; format: ADME, organism-based; conditions: rat, in vivo
Kidney [5] = experiment: Biodistribution in iv dosed Sprague-Dawley rats kidneys after 2 mins by gamma counter; format: ADME, organism-based; conditions: rat, in vivo
Brain [6] = experiment: Biodistribution in iv dosed Sprague-Dawley rats brain after 30 mins by gamma counter; format: ADME, organism-based; conditions: rat, in vivo, 0.5 h
[7] = Drug uptake in high GABAA expression areas of Wistar rat brain prefrontal cortex at 0.1 MBq/ml after 60 mins by autoradiographic analysis; format: ADME, tissue-based; conditions: in vivo, 1 h
[8] = Biodistribution in iv dosed Sprague-Dawley rats fat after 30 mins by gamma counter; format: ADME, organism-based, Adipose tissue; conditions: rat, in vivo, 0.5 h
[9] = Drug uptake in low GABAA expression areas of Wistar rat brain prefrontal cortex at 0.1 MBq/ml after 60 mins by autoradiographic analysis; format: ADME, tissue-based; conditions: in vivo, 1 h
Bone [10] = experiment: Biodistribution in iv dosed Sprague-Dawley rats bone after 0.5 min by gamma counter; format: ADME, organism-based, Bone element; conditions: rat, in vivo
Heart [11] = experiment: Biodistribution in iv dosed Sprague-Dawley rats heart after 10 mins by gamma counter; format: ADME, organism-based; conditions: rat, in vivo
Liver [12] = experiment: Biodistribution in iv dosed Sprague-Dawley rats liver after 30 mins by gamma counter; format: ADME, organism-based; conditions: rat, in vivo, 0.5 h
Blood [13] = experiment: Biodistribution in iv dosed Sprague-Dawley rats blood after 2 mins by gamma counter; format: ADME, organism-based; conditions: rat, in vivo
Spleen [14] = experiment: Biodistribution in iv dosed Sprague-Dawley rats spleen after 10 mins by gamma counter; format: ADME, organism-based; conditions: rat, in vivo
Brain [15] = experiment: Biodistribution in iv dosed Sprague-Dawley rats brain after 10 mins by gamma counter; format: ADME, organism-based; conditions: rat, in vivo
Lung [16] = experiment: Biodistribution in iv dosed Sprague-Dawley rats lung after 10 mins by gamma counter; format: ADME, organism-based; conditions: rat, in vivo
Kidney [17] = experiment: Biodistribution in iv dosed Sprague-Dawley rats kidneys after 10 mins by gamma counter; format: ADME, organism-based; conditions: rat, in vivo
Blood [18] = experiment: Biodistribution in iv dosed Sprague-Dawley rats blood after 60 mins by gamma counter; format: ADME, organism-based; conditions: rat, in vivo, 1 h
Heart [19] = experiment: Biodistribution in iv dosed Sprague-Dawley rats heart after 0.5 min by gamma counter; format: ADME, organism-based; conditions: rat, in vivo
[20] = Drug uptake in Wistar rat brain thalamus/striatum cortex at 0.1 MBq/ml after 60 mins by autoradiographic analysis; format: ADME, tissue-based; conditions: in vivo, 1 h
[21] = Biodistribution in iv dosed Sprague-Dawley rats bladder and urine after 0.5 min by gamma counter; format: ADME, organism-based; conditions: rat, in vivo
Lung [22] = experiment: Biodistribution in iv dosed Sprague-Dawley rats lung after 2 mins by gamma counter; format: ADME, organism-based; conditions: rat, in vivo
[23] = Biodistribution in iv dosed Sprague-Dawley rats large intestine after 2 mins by gamma counter; format: ADME, organism-based; conditions: rat, in vivo
[24] = Drug uptake in low GABAA expression areas of Wistar rat brain thalamus/striatum cortex at 0.1 MBq/ml after 60 mins by autoradiographic analysis; format: ADME, tissue-based; conditions: in vivo, 1 h
[25] = Biodistribution in iv dosed Sprague-Dawley rats bladder and urine after 10 mins by gamma counter; format: ADME, organism-based; conditions: rat, in vivo
Bone [26] = experiment: Biodistribution in iv dosed Sprague-Dawley rats bone after 60 mins by gamma counter; format: ADME, organism-based, Bone element; conditions: rat, in vivo, 1 h
Spleen [27] = experiment: Biodistribution in iv dosed Sprague-Dawley rats spleen after 30 mins by gamma counter; format: ADME, organism-based; conditions: rat, in vivo, 0.5 h
[28] = Biodistribution in iv dosed Sprague-Dawley rats large intestine after 30 mins by gamma counter; format: ADME, organism-based; conditions: rat, in vivo, 0.5 h
Liver [29] = experiment: Biodistribution in iv dosed Sprague-Dawley rats liver after 60 mins by gamma counter; format: ADME, organism-based; conditions: rat, in vivo, 1 h
Bone [30] = experiment: Biodistribution in iv dosed Sprague-Dawley rats bone after 10 mins by gamma counter; format: ADME, organism-based, Bone element; conditions: rat, in vivo
[31] = Biodistribution in iv dosed Sprague-Dawley rats large intestine after 10 mins by gamma counter; format: ADME, organism-based; conditions: rat, in vivo
Kidney [32] = experiment: Biodistribution in iv dosed Sprague-Dawley rats kidneys after 30 mins by gamma counter; format: ADME, organism-based; conditions: rat, in vivo, 0.5 h
Brain [33] = experiment: Biodistribution in iv dosed Sprague-Dawley rats brain after 2 mins by gamma counter; format: ADME, organism-based; conditions: rat, in vivo
Brain [34] = experiment: Biodistribution in iv dosed Sprague-Dawley rats brain after 60 mins by gamma counter; format: ADME, organism-based; conditions: rat, in vivo, 1 h
[35] = Biodistribution in iv dosed Sprague-Dawley rats bladder and urine after 2 mins by gamma counter; format: ADME, organism-based; conditions: rat, in vivo
Muscle tissue = experiment: Biodistribution in iv dosed Sprague-Dawley rats muscle after 2 mins by gamma counter; format: ADME, organism-based; conditions: rat, in vivo
[36] = Biodistribution in iv dosed Sprague-Dawley rats bladder and urine after 60 mins by gamma counter; format: ADME, organism-based; conditions: rat, in vivo, 1 h
[37] = Drug uptake in high GABAA expression areas of Wistar rat brain thalamus/striatum cortex at 0.1 MBq/ml after 60 mins by autoradiographic analysis; format: ADME, tissue-based; conditions: in vivo, 1 h

Drug uptake [1]: 4.7 %ID
Drug uptake [2]: 1 %ID
Drug uptake [3]: 50.3 %ID
Drug uptake [4]: 1.2 %ID
Drug uptake (Kidney [5]): 3.6 %ID
Drug uptake (Brain [6]): 0.1 %ID
Drug uptake [7]: 78%
Drug uptake [8]: 1.7 %ID
Drug uptake [9]: 76%
Drug uptake (Bone [10]): 3 %ID
Drug uptake (Heart [11]): 0.3 %ID
Drug uptake (Liver [12]): 18.7 %ID
Drug uptake (Blood [13]): 4.2 %ID
Drug uptake (Spleen [14]): 0.2 %ID
Drug uptake (Brain [15]): 0.1 %ID
Drug uptake (Lung [16]): 0.6 %ID
Drug uptake (Kidney [17]): 2.1 %ID
Drug uptake (Blood [18]): 0.7 %ID
Drug uptake (Heart [19]): 2 %ID
Drug uptake [20]: 60%
Drug uptake [21]: 0.2 %ID
Drug uptake (Lung [22]): 1.5 %ID
Drug uptake [23]: 1.3 %ID
Drug uptake [24]: 76%
Drug uptake [25]: 0.8 %ID
Drug uptake (Bone [26]): 1.4 %ID
Drug uptake (Spleen [27]): 0.1 %ID
Drug uptake [28]: 1.7 %ID
Drug uptake (Liver [29]): 4.8 %ID
Drug uptake (Bone [30]): 1.7 %ID
Drug uptake [31]: 1.7 %ID
Drug uptake (Kidney [32]): 1.5 %ID
Drug uptake (Brain [33]): 0.1 %ID
Drug uptake (Brain [34]): 0 %ID
Drug uptake [35]: 0 %ID
Drug uptake (Muscle tissue): 47.3 %ID
Drug uptake [36]: 7.3 %ID
Drug uptake [37]: 76%
SMILES: O=C(NCC[18F])c1c[nH]c2ccc(Cc3ccccc3)cc2c1=O
